Laboratory results taken from patent US6890736B1, “Methods for producing proteins in cultured cells” (Immunex Corporation, priority 2002, dated 2005).

Experiments:
Assay type in all cases: cell-based, Chinese hamster
[1] = system: cell line 25H9 (CHO cells that produce IL-1R-II protein); experiment: Example 3: induction with 5-bromo-2′-deoxycytidine 5′-monophosphate, IL-1R-II production
Description: (§1) About 2×10^6 cells of cell line 25H9 were inoculated into 30 milliliters of serum-free medium and incubated at the temperatures indicated in Table 1 in vented shake flasks. At the times indicated in Table 1, samples were taken from each flask to determine IL-1R-II titer, cell number, and cell viability. IL-1R-II protein titer was determined by ELISA assay. Cell number was determined by counting cells in a hemocytometer. Cell viability was determined by trypan blue staining and counting stained cells in a hemocytometer. Cumulative viable cell density (CVCD) is the area under the curve of a plot of the viable cell density versus time (in units of cells/ml/day). Productivity (pg of IL-1R-II/cell/day) was determined by dividing the protein titer on a particular day by the CVCD on the same day. Cells were fed with amino acids on days 2 and 5, and dextrose was added periodically in order to maintain levels above 2.0 g/L. All samples were done in duplicate, and the data shown is an average value.
(§2) The following experiment compares the effects of 5-bromo-2′-deoxycytidine 5′-monophosphate and 5-aza-2′-deoxycytidine on induction of protein production. The experiment was done as described in Example 1 with the following exceptions. All cultures were incubated at 31° C., and cell number and viability were determined using a Guava PCA Cytometer (available from Guava Technologies, Hayward, Calif., USA). Samples were done in triplicate.

[2] = system: cell line 25H9 (CHO cells); experiment: Example 3: cell number (Guava PCA Cytometer); settings: 31° C.
Description: as §1, §2

[3] = Example 2: cell number and viability; settings: Chinese hamster, 31° C., 0.5 mM butyrate
Description: as §1
(§3) To determine an optimum temperature and decitabine concentration, three temperatures (30° C., 31° C., and 32° C.) and three decitabine concentrations (10 μM, 15 μM, and 20 μM) were tested. A 31° C. culture containing 0.5 mM sodium butyrate was grown as a control. […] See e.g. International Application Nos. WO 89/06686 and WO 87/05626. The experiment was performed as in Example 1 except that the inducer concentrations, temperatures, and days at which data was collected are as indicated in Table 2 and FIG. 1.

[4] = system: cell line 25H9 (CHO cells); experiment: Example 2: cell number and viability; settings: 31° C., 0.5 mM butyrate
Description: as §1, §3

[5] = system: cell line 25H9 (CHO cells that produce IL-1R-II protein); experiment: Example 2: optimization of temperature and decitabine concentration, IL-1R-II production; settings: 31° C., 0.5 mM butyrate
Description: as §1, §3

SMILES: Nc1nc(=O)n([C@H]2C[C@H](O)[C@@H](COP(=O)(O)O)O2)cc1Br [5-bromo-2′-deoxycytidine 5′-monophosphate]
- effectiveness at inducing protein production relative to 5-aza-2′-deoxycytidine ([1]; 31° C.): about twice as effective
- inducing IL-1R-II production, 10 μM versus 5 μM or 15 μM ([1]; 31° C.): more effective than either 5 μM or 15 μM
- Titer of IL-1R-II ([1]; 31° C., 5 μM, day 0): 0.0 mg/L
- Productivity ([1]; 31° C., 5 μM, day 2): 12.4 pg of IL-1RII/cell/day
- Titer of IL-1R-II ([1]; 31° C., 5 μM, day 2): 67.6 mg/L
- Productivity ([1]; 31° C., 5 μM, day 5): 13.8 pg of IL-1RII/cell/day
- Titer of IL-1R-II ([1]; 31° C., 5 μM, day 5): 197.4 mg/L
- Productivity ([1]; 31° C., 5 μM, day 7): 14.9 pg of IL-1RII/cell/day
- Titer of IL-1R-II ([1]; 31° C., 5 μM, day 7): 289.1 mg/L
- Productivity ([1]; 31° C., 5 μM, day 9): 15.2 pg of IL-1RII/cell/day
- Titer of IL-1R-II ([1]; 31° C., 5 μM, day 9): 357.6 mg/L
- Titer of IL-1R-II ([1]; 31° C., 10 μM, day 0): 0.0 mg/L
- Productivity ([1]; 31° C., 10 μM, day 2): 13.4 pg of IL-1RII/cell/day
- Titer of IL-1R-II ([1]; 31° C., 10 μM, day 2): 75.0 mg/L
- Productivity ([1]; 31° C., 10 μM, day 5): 17.6 pg of IL-1RII/cell/day
- Titer of IL-1R-II ([1]; 31° C., 10 μM, day 5): 264.0 mg/L
- Productivity ([1]; 31° C., 10 μM, day 7): 19.2 pg of IL-1RII/cell/day
- Titer of IL-1R-II ([1]; 31° C., 10 μM, day 7): 401.4 mg/L
- Productivity ([1]; 31° C., 10 μM, day 9): 18.6 pg of IL-1RII/cell/day
- Titer of IL-1R-II ([1]; 31° C., 10 μM, day 9): 484.0 mg/L
- Titer of IL-1R-II ([1]; 31° C., 15 μM, day 0): 0.0 mg/L
- Productivity ([1]; 31° C., 15 μM, day 2): 11.4 pg of IL-1RII/cell/day
- Titer of IL-1R-II ([1]; 31° C., 15 μM, day 2): 61.4 mg/L
- Productivity ([1]; 31° C., 15 μM, day 5): 12.1 pg of IL-1RII/cell/day
- Titer of IL-1R-II ([1]; 31° C., 15 μM, day 5): 167.3 mg/L
- Productivity ([1]; 31° C., 15 μM, day 7): 13.4 pg of IL-1RII/cell/day
- Titer of IL-1R-II ([1]; 31° C., 15 μM, day 7): 249.1 mg/L
- Productivity ([1]; 31° C., 15 μM, day 9): 14.2 pg of IL-1RII/cell/day
- Titer of IL-1R-II ([1]; 31° C., 15 μM, day 9): 318.3 mg/L
- inducing IL-1R-II production, all three concentrations versus 10 μM 5-aza-2′-deoxycytidine ([1]; 31° C., 5, 10, 15 μM): more effective than 10 μM 5-aza-2′-deoxycytidine
- Cumulative Viable Cell Density ([2]; 5 μM, day 0): 0.0 10^6 cells/ml/day
- Viable Cell Density ([2]; 5 μM, day 0): 2.4 cells/ml × 10^6
- Cumulative Viable Cell Density ([2]; 5 μM, day 2): 5.5 10^6 cells/ml/day
- Viable Cell Density ([2]; 5 μM, day 2): 3.1 cells/ml × 10^6
- Cumulative Viable Cell Density ([2]; 5 μM, day 5): 14.3 10^6 cells/ml/day
- Viable Cell Density ([2]; 5 μM, day 5): 2.8 cells/ml × 10^6
- Cumulative Viable Cell Density ([2]; 5 μM, day 7): 19.4 10^6 cells/ml/day
- Viable Cell Density ([2]; 5 μM, day 7): 2.3 cells/ml × 10^6
- Cumulative Viable Cell Density ([2]; 5 μM, day 9): 23.5 10^6 cells/ml/day
- Viable Cell Density ([2]; 5 μM, day 9): 1.8 cells/ml × 10^6
- Cumulative Viable Cell Density ([2]; 10 μM, day 0): 0.0 10^6 cells/ml/day
- Viable Cell Density ([2]; 10 μM, day 0): 2.4 cells/ml × 10^6
- Cumulative Viable Cell Density ([2]; 10 μM, day 2): 5.6 10^6 cells/ml/day
- Viable Cell Density ([2]; 10 μM, day 2): 3.3 cells/ml × 10^6
- Cumulative Viable Cell Density ([2]; 10 μM, day 5): 15.0 10^6 cells/ml/day
- Viable Cell Density ([2]; 10 μM, day 5): 3.0 cells/ml × 10^6
- Cumulative Viable Cell Density ([2]; 10 μM, day 7): 20.9 10^6 cells/ml/day
- Viable Cell Density ([2]; 10 μM, day 7): 2.8 cells/ml × 10^6
- Cumulative Viable Cell Density ([2]; 10 μM, day 9): 26.0 10^6 cells/ml/day
- Viable Cell Density ([2]; 10 μM, day 9): 2.3 cells/ml × 10^6
- Cumulative Viable Cell Density ([2]; 15 μM, day 0): 0.0 10^6 cells/ml/day
- Viable Cell Density ([2]; 15 μM, day 0): 2.4 cells/ml × 10^6
- Cumulative Viable Cell Density ([2]; 15 μM, day 2): 5.4 10^6 cells/ml/day
- Viable Cell Density ([2]; 15 μM, day 2): 3.0 cells/ml × 10^6
- Cumulative Viable Cell Density ([2]; 15 μM, day 5): 13.8 10^6 cells/ml/day
- Viable Cell Density ([2]; 15 μM, day 5): 2.6 cells/ml × 10^6
- Cumulative Viable Cell Density ([2]; 15 μM, day 7): 18.6 10^6 cells/ml/day
- Viable Cell Density ([2]; 15 μM, day 7): 2.2 cells/ml × 10^6
- Cumulative Viable Cell Density ([2]; 15 μM, day 9): 22.4 10^6 cells/ml/day
- Viable Cell Density ([2]; 15 μM, day 9): 1.6 cells/ml × 10^6
- viable cell density versus 10 μM 5-aza-2′-deoxycytidine ([2]; all three concentrations tested): higher

SMILES: CCCC(=O)[O-].[Na+] [butyrate, sodium butyrate]
- viability at 0 day, 0.5 mM ([3]; day 0): 94.2%
- viability at 3 day, 0.5 mM ([3]; day 3): 91.7%
- viability at 6 day, 0.5 mM ([3]; day 6): 88.5%
- viability at 8 day, 0.5 mM ([3]; day 8): 71.1%
- Cumulative Viable Cell Density ([4]; day 0): 0 mL⁻¹ day⁻¹
- Viable Cell Density ([4]; day 0): 2e+06 mL⁻¹
- Cumulative Viable Cell Density ([4]; day 3): 8.9e+06 mL⁻¹ day⁻¹
- Viable Cell Density ([4]; day 3): 4e+06 mL⁻¹
- Cumulative Viable Cell Density ([4]; day 6): 2.09e+07 mL⁻¹ day⁻¹
- Viable Cell Density ([4]; day 6): 4e+06 mL⁻¹
- Cumulative Viable Cell Density ([4]; day 8): 2.89e+07 mL⁻¹ day⁻¹
- Viable Cell Density ([4]; day 8): 3.9e+06 mL⁻¹
- IL1R-II Titer ([5]; day 0): 0.0 µg/mL
- IL1R-II Titer ([5]; day 3): 214.0 µg/mL
- Productivity ([5]; day 3): 23.9 pg IL-1R-II/cell/day
- IL1R-II Titer ([5]; day 6): 473.0 µg/mL
- Productivity ([5]; day 6): 22.6 pg IL-1R-II/cell/day
- IL1R-II Titer ([5]; day 8): 862.0 µg/mL
- Productivity ([5]; day 8): 29.8 pg IL-1R-II/cell/day
